From US20230183218A1, “CONDENSED SUBSTITUTED HYDROPYRROLES AS ANTAGONISTS OF THE MUSCARINIC ACETYLCHOLINE RECEPTOR M4” (Vanderbilt University, priority 2020, published 2023)

Columns and labels:
Rat M4 = biological target: T1, Rat M4 (Rattus norvegicus, UniProt P08485); test: mAChR M4 cell-based functional assay (calcium flux, antagonist mode vs EC80 acetylcholine), rat M4/Gqi5/CHO-K1 cells; conditions: for remaining activity at 30 µM: CHO-K1, % ACh maximum at 30 μM, rat M4, read-out: Rat M4 Emin (%); for IC50: decrease of response elicited by EC80 acetylcholine, rat M4/Gqi5 CHO-K1 cells
T1 construct: expressed in transfected cells; host or cells: CHO-K1 (ATCC), stably co-expressing chimeric G protein Gqi5
T1 sequence (P08485 1-478): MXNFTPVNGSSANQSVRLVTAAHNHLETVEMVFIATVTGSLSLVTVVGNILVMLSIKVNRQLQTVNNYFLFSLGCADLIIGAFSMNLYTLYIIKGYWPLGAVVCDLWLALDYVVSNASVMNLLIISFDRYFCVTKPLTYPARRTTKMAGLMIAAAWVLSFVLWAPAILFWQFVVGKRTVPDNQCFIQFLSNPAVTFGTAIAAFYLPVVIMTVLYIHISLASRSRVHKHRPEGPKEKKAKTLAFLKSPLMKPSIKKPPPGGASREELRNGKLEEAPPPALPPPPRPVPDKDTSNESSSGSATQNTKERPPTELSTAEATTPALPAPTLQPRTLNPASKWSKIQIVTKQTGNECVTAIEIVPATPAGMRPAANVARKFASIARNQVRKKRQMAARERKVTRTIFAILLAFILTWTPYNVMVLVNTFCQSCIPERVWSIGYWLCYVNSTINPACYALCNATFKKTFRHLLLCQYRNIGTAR
Protocol: (§1) Human or rat M4 cDNA, along with the chimeric G protein Gqi5, were transfected into Chinese hamster ovary (CHO-K1) cells purchased from the American Type Culture Collection using Lipofectamine2000. M4/Gqi5/CHO cells were grown in Ham's F-12 medium containing 10% heat-inactivated fetal bovine serum (FBS), 20 mM HEPES, 500 μg/mL G418 sulfate, and 200 μg/mL Hygromycin B.
(§2) For high throughput measurement of agonist-evoked increases in intracellular calcium, CHO-K1 cells stably expressing muscarinic receptors were plated in growth medium lacking G418 and hygromycin at 15,000 cells/20 μL/well in Greiner 384-well black-walled, tissue culture (TC)-treated, clear-bottom plates (VWR). Cells were incubated overnight at 37° C. and 5% CO2. The next day, cells were washed using an ELX 405 (BioTek) with assay buffer; the final volume was then aspirated to 20 μL. Next, 20 μL of a 2.3 μM stock of Fluo-4/acetoxymethyl ester (Invitrogen, Carlsbad, Calif.), prepared as a 2.3 mM stock in DMSO and mixed in a 1:1 ratio with 10% (w/v) Pluronic F-127 and diluted in assay buffer, was added to the wells and the cell plates were incubated for 50 min at 37° C. and 5% CO2. Dye was removed by washing with the ELX 405 and the final volume was aspirated to 20 μL. Compound master plates were formatted in a 10 point concentration-response curve (CRC) format (1:3 dilutions) in 100% DMSO with a starting concentration of 10 or 1 mM using a BRAVO liquid handler (Agilent). Test compound CRCs were then transferred to daughter plates (240 nL) using the Echo acoustic plate reformatter (Labcyte, Sunnyvale, Calif.) and then diluted into assay buffer (40 μL) to a 2× stock using a Thermo Fisher Combi (Thermo Fisher Scientific, Waltham, Mass.).
(§3) Calcium flux was measured using the Functional Drug Screening System (FDSS) 6000 or 7000 (Hamamatsu Corporation, Tokyo, Japan) as an increase in the fluorescent static ratio. Compounds were applied to cells (20 μL, 2×) using the automated system of the FDSS at 2 seconds into the protocol and the data were collected at 1 Hz. At 143 s, 10 μL of an EC20 concentration of the muscarinic receptor agonist acetylcholine was added (5×), followed by the addition of 12 μL of an EC80 concentration of acetylcholine at the 268 s time point (5×). Agonist activity was analyzed as a concentration-dependent increase in calcium mobilization upon compound addition. Positive allosteric modulator activity was analyzed as a concentration-dependent increase in the EC20 acetylcholine response. Antagonist activity was analyzed as a concentration-dependent decrease in the EC80 acetylcholine response; for the purposes of the tables herein, an IC50 (inhibitory concentration 50) was calculated as a concentration-dependent decrease of the response elicited by an EC80 concentration of acetylcholine. Concentration-response curves were generated using a four-parameter logistical equation in XLFit curve fitting software (IDBS, Bridgewater, N.J.) for Excel (Microsoft, Redmond, Wash.) or Prism (GraphPad Software, Inc., San Diego, Calif.) or the Dotmatics software platform (Dotmatics, Bishop's Stortford, UK).
(§4) Compounds were synthesized as described above. Activity (IC50 and Emin) was determined in the mAChR M4 cell-based functional assay as described above and the data are shown in Table 2.

Human M4 = biological target: T2, Human M4 (Homo sapiens, UniProt P08173); test: mAChR M4 cell-based functional assay (calcium flux, antagonist mode vs EC80 acetylcholine), human M4/Gqi5/CHO-K1 cells; conditions: for remaining activity at 30 µM: CHO-K1, % ACh maximum at 30 μM, human M4, read-out: Human M4 Emin (%); for IC50: decrease of response elicited by EC80 acetylcholine, human M4/Gqi5 CHO-K1 cells
T2 construct: expressed in transfected cells; host or cells: CHO-K1 (ATCC), stably co-expressing chimeric G protein Gqi5
T2 sequence (P08173 1-479): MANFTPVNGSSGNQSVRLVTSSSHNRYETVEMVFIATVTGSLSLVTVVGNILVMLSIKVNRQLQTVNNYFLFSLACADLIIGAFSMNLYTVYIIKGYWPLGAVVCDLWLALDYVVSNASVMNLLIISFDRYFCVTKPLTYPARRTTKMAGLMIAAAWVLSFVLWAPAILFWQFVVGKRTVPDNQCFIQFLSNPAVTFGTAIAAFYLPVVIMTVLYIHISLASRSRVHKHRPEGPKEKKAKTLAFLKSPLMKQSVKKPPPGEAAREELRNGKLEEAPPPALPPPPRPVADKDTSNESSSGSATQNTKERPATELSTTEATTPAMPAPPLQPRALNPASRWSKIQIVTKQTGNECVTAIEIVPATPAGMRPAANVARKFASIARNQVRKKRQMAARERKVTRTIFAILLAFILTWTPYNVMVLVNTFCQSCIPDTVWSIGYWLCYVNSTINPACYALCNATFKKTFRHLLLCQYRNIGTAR
Protocol: as §1, §2, §3, §4

Structure (SMILES): [O-][S+](c1ccccc1)c1ccc(N[C@H]2C[C@@H]3CN(CC4CCOCC4)C[C@@H]3C2)nn1 (stereo partly drawn) [compound 28, (3aR,5s,6aS)-N-(6-(phenylsulfinyl)pyridazin-3-yl)-2-((tetrahydro-2H-pyran-4-yl)methyl)octahydrocyclopenta[c]pyrrol-5-amine]
- remaining activity at 30 µM (Rat M4): 8%
- IC50 (Rat M4): 113 nM
- remaining activity at 30 µM (Human M4): 5%
- IC50 (Human M4): 57.2 nM

Structure (SMILES): [O-][S+](c1ccccc1)c1ccc(N[C@H]2C[C@@H]3CN(Cc4ccc5c(c4)OCO5)C[C@@H]3C2)nn1 (stereo partly drawn) [compound 30, (3aR,5s,6aS)-2-(benzo[d][1,3]dioxol-5-ylmethyl)-N-(6-(phenylsulfinyl)pyridazin-3-yl)octahydrocyclopenta[c]pyrrol-5-amine]
- remaining activity at 30 µM (Rat M4): 4%
- IC50 (Rat M4): 196 nM
- remaining activity at 30 µM (Human M4): 4%
- IC50 (Human M4): 7.8 nM

Structure (SMILES): Cc1cc(CN2C[C@H]3C[C@H](Nc4ccc(S(=O)(=O)c5ccccc5)nn4)C[C@H]3C2)ccc1F [compound 31, (3aR,5s,6aS)-2-(4-fluoro-3-methylbenzyl)-N-(6-(phenylsulfonyl)pyridazin-3-yl)octahydrocyclopenta[c]pyrrol-5-amine]
- remaining activity at 30 µM (Rat M4): 3%
- IC50 (Rat M4): 1160 nM
- remaining activity at 30 µM (Human M4): 4%
- IC50 (Human M4): 518 nM

Structure (SMILES): Cc1cc(CN2C[C@H]3C[C@H](Nc4ccc([S+]([O-])c5ccccc5)nn4)C[C@H]3C2)ccc1F (stereo partly drawn) [compound 32, (3aR,5s,6aS)-2-(4-fluoro-3-methylbenzyl)-N-(6-(phenylsulfinyl)pyridazin-3-yl)octahydrocyclopenta[c]pyrrol-5-amine]
- remaining activity at 30 µM (Rat M4): 3%
- IC50 (Rat M4): 970 nM
- remaining activity at 30 µM (Human M4): 3%
- IC50 (Human M4): 242 nM

Structure (SMILES): O=S(=O)(c1ccc(N[C@H]2C[C@@H]3CN(Cc4ccccn4)C[C@@H]3C2)nn1)C1CCCCC1 [compound 33, (3aR,5s,6aS)-N-(6-(cyclohexylsulfonyl)pyridazin-3-yl)-2-(pyridin-2-ylmethyl)octahydrocyclopenta[c]pyrrol-5-amine]
- remaining activity at 30 µM (Rat M4): 14%
- IC50 (Rat M4): 4460 nM
- remaining activity at 30 µM (Human M4): 5%
- IC50 (Human M4): 105 nM

Structure (SMILES): O=S(=O)(c1ccc(N[C@H]2C[C@@H]3CN(CC4CCOCC4)C[C@@H]3C2)nn1)C1CCCCC1 [compound 34, (3aR,5s,6aS)-N-(6-(cyclohexylsulfonyl)pyridazin-3-yl)-2-((tetrahydro-2H-pyran-4-yl)methyl)octahydrocyclopenta[c]pyrrol-5-amine]
- remaining activity at 30 µM (Rat M4): 5%
- IC50 (Rat M4): 119 nM
- remaining activity at 30 µM (Human M4): 4%
- IC50 (Human M4): 7.75 nM

Structure (SMILES): Cc1cc(CN2C[C@H]3C[C@H](Nc4ccc(S(=O)(=O)C5CCCCC5)nn4)C[C@H]3C2)nn1C [compound 35, (3aR,5s,6aS)-N-(6-(cyclohexylsulfonyl)pyridazin-3-yl)-2-((1,5-dimethyl-1H-pyrazol-3-yl)methyl)octahydrocyclopenta[c]pyrrol-5-amine]
- remaining activity at 30 µM (Rat M4): 19%
- IC50 (Rat M4): 4810 nM
- remaining activity at 30 µM (Human M4): 6%
- IC50 (Human M4): 181 nM

Structure (SMILES): CC1(C)CC(N2C[C@H]3C[C@H](Nc4ccc(S(=O)(=O)C5CCCCC5)nn4)C[C@H]3C2)CCO1 (stereo partly drawn) [compound 36, (3aR,5s,6aS)-N-(6-(cyclohexylsulfonyl)pyridazin-3-yl)-2-(2,2-dimethyltetrahydro-2H-pyran-4-yl)octahydrocyclopenta[c]pyrrol-5-amine]
- remaining activity at 30 µM (Rat M4): 7%
- IC50 (Rat M4): 460 nM
- remaining activity at 30 µM (Human M4): 5%
- IC50 (Human M4): 51.5 nM

Structure (SMILES): O=S(=O)(c1ccc(N[C@H]2C[C@@H]3CN(Cc4ccc5c(c4)OCO5)C[C@@H]3C2)nn1)C1CCCCC1 [compound 37, (3aR,5s,6aS)-2-(benzo[d][1,3]dioxol-5-ylmethyl)-N-(6-(cyclohexylsulfonyl)pyridazin-3-yl)octahydrocyclopenta[c]pyrrol-5-amine]
- remaining activity at 30 µM (Rat M4): 4%
- IC50 (Rat M4): 160 nM
- remaining activity at 30 µM (Human M4): 4%
- IC50 (Human M4): 3.84 nM

Structure (SMILES): Cc1cc(CN2C[C@H]3C[C@H](Nc4ccc(S(=O)(=O)C5CCCCC5)nn4)C[C@H]3C2)ccc1F [compound 38, (3aR,5s,6aS)-N-(6-(cyclohexylsulfonyl)pyridazin-3-yl)-2-(4-fluoro-3-methylbenzyl)octahydrocyclopenta[c]pyrrol-5-amine]
- remaining activity at 30 µM (Rat M4): 3%
- IC50 (Rat M4): 591 nM
- remaining activity at 30 µM (Human M4): 4%
- IC50 (Human M4): 188 nM

Structure (SMILES): O=S(=O)(c1ccccc1)c1nnc(N[C@H]2C[C@@H]3CN(CC4CCOCC4)C[C@@H]3C2)cc1NC1CC1 [compound 39, N^5-cyclopropyl-6-(phenylsulfonyl)-N^3-((3aR,5s,6aS)-2-((tetrahydro-2H-pyran-4-yl)methyl)octahydrocyclopenta[c]pyrrol-5-yl)pyridazine-3,5-diamine]
- remaining activity at 30 µM (Rat M4): 4%
- IC50 (Rat M4): 288 nM
- remaining activity at 30 µM (Human M4): 4%
- IC50 (Human M4): 70.7 nM

Structure (SMILES): Cc1cccnc1CN1C[C@H]2C[C@H](Nc3ccc(S(=O)(=O)c4ccccc4)nn3)C[C@H]2C1 [compound 40, (3aR,5s,6aS)-2-((3-methylpyridin-2-yl)methyl)-N-(6-(phenylsulfonyl)pyridazin-3-yl)octahydrocyclopenta[c]pyrrol-5-amine]
- remaining activity at 30 µM (Rat M4): 15%
- IC50 (Rat M4): 2890 nM
- remaining activity at 30 µM (Human M4): 5%
- IC50 (Human M4): 221 nM

Structure (SMILES): O=S(=O)(c1ccccc1)c1ccc(N[C@H]2C[C@@H]3CN(Cc4ncccc4C(F)(F)F)C[C@@H]3C2)nn1 [compound 41, (3aR,5s,6aS)-N-(6-(phenylsulfonyl)pyridazin-3-yl)-2-((3-(trifluoromethyl)pyridin-2-yl)methyl)octahydrocyclopenta[c]pyrrol-5-amine]
- remaining activity at 30 µM (Rat M4): 20%
- IC50 (Rat M4): 5780 nM
- remaining activity at 30 µM (Human M4): 6%
- IC50 (Human M4): 742 nM

Structure (SMILES): Cc1cc2c(cc1CN1C[C@H]3C[C@H](Nc4ccc(S(=O)(=O)c5ccccc5)nn4)C[C@H]3C1)OCO2 [compound 42, (3aR,5s,6aS)-2-((6-methylbenzo[d][1,3]dioxol-5-yl)methyl)-N-(6-(phenylsulfonyl)pyridazin-3-yl)octahydrocyclopenta[c]pyrrol-5-amine]
- remaining activity at 30 µM (Rat M4): 14%
- IC50 (Rat M4): 3110 nM
- remaining activity at 30 µM (Human M4): 3%
- IC50 (Human M4): 1000 nM
